In PubChem BioAssay (NCI):
Several values for one entry are separate records, joined by “and”; a condition that tells them apart may be missing. Equal values may be shown once.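 96-well plates; 48 h exposure; 5 concentrations. Endpoints by linear interpolation between flanking doses. Not reached: highest tested concentration assigned. GI50 marks 50% less growth. Definition used: TGI = concentration required for complete inhibition of growth.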

How the values were obtained:
Assay in all cases: growth of human tumour cells (NCI), 48 h
OVCAR-4 ovarian = test system: OVCAR-4 ovarian
OVCAR-3 ovarian = test system: OVCAR-3 ovarian
CCRF-CEM leukemia = test system: CCRF-CEM leukemia
HOP-62 NSCLC = test system: HOP-62 NSCLC
A549 NSCLC = test system: A549 NSCLC
SF-295 CNS = test system: SF-295 CNS
SK-MEL-28 melanoma = test system: SK-MEL-28 melanoma
SNB-19 CNS = test system: SNB-19 CNS
MDA-MB-435 = test system: MDA-MB-435
K-562 leukemia = test system: K-562 leukemia

Structure (SMILES) | GI50 (OVCAR-4 ovarian) | TGI (OVCAR-4 ovarian) | GI50 (OVCAR-3 ovarian) | TGI (OVCAR-3 ovarian) | GI50 (CCRF-CEM leukemia) | TGI (CCRF-CEM leukemia) | GI50 (HOP-62 NSCLC) | TGI (HOP-62 NSCLC) | GI50 (A549 NSCLC) | TGI (A549 NSCLC) | GI50 (SF-295 CNS) | TGI (SF-295 CNS) | GI50 (SK-MEL-28 melanoma) | TGI (SK-MEL-28 melanoma) | GI50 (SNB-19 CNS) | TGI (SNB-19 CNS) | GI50 (MDA-MB-435) | TGI (MDA-MB-435) | GI50 (K-562 leukemia) | TGI (K-562 leukemia)
C1=C\COCc2cc(ccc2OCCN2CCCC2)Nc2nccc(n2)-c2cccc(c2)COC/1 | 3.79 µM | 6.56 µM | 2.01 µM | 5.57 µM | 2.56 µM | 7 µM | 2.47 µM | 6.56 µM | 2.03 µM | 5.72 µM | 3.34 µM | 5.94 µM | 2.1 µM | 5.33 µM | 2.68 µM | 7.07 µM | 1.53 µM | 4.65 µM | 0.933 µM | 3.65 µM
O=C(c1ccc(/C=C/c2n[nH]c3ccccc23)cc1)N1CCNCC1 | > 10 µM and 3.82 µM | > 10 µM and 26 µM | 9.32 µM and 8.01 µM | > 10 µM and 24 µM | 6.03 µM and 10.4 µM | > 10 µM and 75.8 µM | > 10 µM and 3.63 µM | > 10 µM and 19.3 µM | 2.95 µM and 2.57 µM | > 10 µM and 39.4 µM | 3.15 µM and 5.28 µM | > 10 µM and 21.9 µM | 1.71 µM and 5.99 µM | 3.34 µM and 19.8 µM | 4.26 µM and 15.8 µM | > 10 µM and 33.2 µM | 1.54 µM and 2.58 µM | 2.9 µM and 15.5 µM | 1.45 µM and 1.37 µM | 3.58 µM and 21.5 µM
O=C(Nc1ccc(F)cc1)c1cc(S(=O)(=O)Nc2nc3ccccc3o2)c(SCc2ccccc2)cc1Cl | 26.9 µM | 60.9 µM | 14.8 µM | 28.1 µM | 12.9 µM | 31.2 µM | 17.7 µM | 33.5 µM | 18.3 µM | 38.4 µM | 15 µM | 29.2 µM | 25.8 µM | 58.2 µM | 47 µM | > 100 µM | 16.3 µM | 30.7 µM | 24.7 µM | 99.6 µM
COc1ccc(CCNC(=O)c2ccc(NC3=C(Cl)C(=O)N(Cc4ccccc4)C3=O)cc2)cc1OC | > 100 µM | > 100 µM | 10.9 µM | > 100 µM | 0.48 µM | 3.71 µM | 45 µM | > 100 µM | 33.1 µM | > 100 µM | 29.4 µM | > 100 µM | 15.1 µM | > 100 µM | 27.5 µM | > 100 µM | 15.8 µM | 43.8 µM | 2.21 µM | 5.21 µM
CC[C@H]1CN2CCc3cc(OC)c(OC)cc3[C@@H]2C[C@@H]1C[C@H]1NCCc2c1[nH]c1ccc(O)cc21 | 0.0138 µM | 0.0443 µM and 0.0436 µM and < 0.0124 µM | 0.0156 µM | 0.0622 µM and 0.089 µM and 0.25 µM | 0.0129 µM and 0.0207 µM | 0.239 µM and 0.054 µM and 0.326 µM | 0.0264 µM and 0.0298 µM | 0.0748 µM and 0.0941 µM and 0.0488 µM | 0.0192 µM and 0.0336 µM | 0.0627 µM and 0.121 µM and 0.321 µM | 0.0323 µM and 0.246 µM | – | 0.0316 µM and 0.0425 µM | 0.0813 µM and 0.256 µM and 0.41 µM | 0.0249 µM and 0.0636 µM | – | – | 0.261 µM | 0.0263 µM and 0.0353 µM | –
O=C1NC(=O)/C(=C\c2ccccc2)C2=C1CCCC2 | 14.8 µM | 29.2 µM | 2.71 µM | 8.17 µM | 3.7 µM | > 37.9 µM | 7.31 µM | 25.8 µM | 19.7 µM | 51.6 µM | 3.98 µM | 17.6 µM | 4.14 µM | 13.9 µM | 10.3 µM | 22.1 µM | 1.82 µM | 3.49 µM | 5.39 µM | > 40.3 µM
CC1=C(C(=O)Nc2ccc(Cl)c(Cl)c2)C(c2cccc(Oc3ccccc3)c2)NC(=O)N1 (stereo unspecified) | 11.2 µM | > 50 µM | 7.75 µM | 17 µM | > 50 µM | > 50 µM | 14.6 µM | 26.5 µM | 3.94 µM | > 50 µM | 5.57 µM | 16.6 µM | 11.1 µM | 33.2 µM | 20.1 µM | > 50 µM | 6.33 µM | 16.7 µM | 18.6 µM | > 50 µM
COc1ccc(-c2ccc(-c3ccc(C(=N)N)s3)s2)cc1 | 0.187 µM | 0.399 µM | 0.194 µM | 0.352 µM | 0.208 µM | 0.485 µM | 0.214 µM | 0.446 µM | 0.195 µM | 0.393 µM | 0.188 µM | 0.395 µM | 0.187 µM | 0.348 µM | 0.31 µM | 1.41 µM | 0.179 µM | 0.336 µM | 0.184 µM | 0.426 µM
O[C@H](c1cc(C(F)(F)F)nc2c(C(F)(F)F)cccc12)[C@@H]1CCCCN1 | 4.45 µM | 15 µM | 3.38 µM | 11.5 µM | 8.52 µM | 40.7 µM | 4.73 µM | 11.8 µM | 5.25 µM | 16.3 µM | 2.08 µM | 5.36 µM | 2.29 µM | 5.63 µM | 7.19 µM | 20.9 µM | 2.43 µM | 7.07 µM | 2.87 µM | 9.17 µM
